Test [1] deals with T1, UHRF1 tandem Tudor domain (TTD) (Homo sapiens, UniProt Q96T88).
T1 construct: UHRF1 (aa 126–285); His (N, cleaved yes); made in house; host or cells: E. coli BL21 (DE3) Codon plus RIL
T1 sequence (Q96T88 126-285): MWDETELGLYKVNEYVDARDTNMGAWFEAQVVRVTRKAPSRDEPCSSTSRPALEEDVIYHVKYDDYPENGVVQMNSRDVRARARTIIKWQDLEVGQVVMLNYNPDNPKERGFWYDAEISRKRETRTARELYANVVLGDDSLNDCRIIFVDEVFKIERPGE
In words: ITC binding to tandem Tudor domain of UHRF1. The text has this: The coding DNA fragments of following Tudor domains were cloned into pET28-MHL vector: SMN (aa 82–147), UHRF1 (aa 126–285), SMNDC1 (aa 53–130), TDRD3 (aa 554–611), SND1 (aa 650–910), TDRD2 (aa 327–420), FXR1 (aa 2–132), PHF1 (aa 28–87), SGF29 (aa 115–293), JMJD2A (aa 897–1101), 53BP1 (aa 1483–1606), SETDB1 (aa 190–410), LBR (aa 1–67), ZGPAT (aa 120–271). The coding regions of chromodomain of CBX7 (aa 8–62), PWWP domain of DNMT3A (aa 275–417), WD40 repeats of WDR5 (aa 24–334) and CW domain of ZCWPW2 (aa 21–78) were also subcloned into pET28-MHL vector to generate N-terminally His-tagged fusion protein. The MBT repeats of L3MBTL1 (aa 200–522) and L3MBTL2 (aa 170–625) were subcloned into pET28GST-LIC vector to generate N-terminally GST-His-tagged fusion protein. All the plasmids were generated by ligase independent cloning (Vazyme Biotech, C112 or ABclonal Technology, RK21020). […] The proteins were further purified by Superdex75 or Superdex200 gel-filtration column (GE Healthcare) in a buffer containing 20 mM Tris-HCl, pH 7.5, 150 mM NaCl and 1 mM DTT. For crystallization experiments, purified proteins were concentrated to 18 mg/mL for SMN, 23 mg/mL for UHRF1 and 10 mg/mL for TDRD3 in the gel-filtration buffer. All the mutations were introduced with the QuikChange II XL site-directed mutagenesis kit (Stratagene, 200522) and confirmed by DNA sequencing. Mutant proteins were also expressed in E. coli BL21 (DE3) Codon plus RIL and purified using the same procedures described above. The molecular weight of all protein samples was measured by mass spectrometry.
For the ITC measurement, the concentrated proteins were diluted into 20 mM Tris-HCl, pH 7.5, 150 mM NaCl (ITC buffer); the lyophilized compounds were dissolved in the same buffer, and the pH value was adjusted by adding 2 M NaOH or 2 M HCl. The compounds that could not be dissolved in the ITC buffer were dissolved in DMSO with the accessible highest concentration. Compound concentrations were calculated from the mass and the volume of the solvent. For the ITC assay with compound dissolved in DMSO, the protein was diluted by ITC buffer containing same final concentration of DMSO. All measurements were performed in duplicate at 25 °C, using a VP-ITC (MicroCal, Inc.), an iTC-200 (MicroCal, Inc.), or a Nano-ITC (TA, Inc.) microcalorimeter. The protein with a concentration of 50–100 μM was placed in the cell chamber, and the compounds with a concentration of 0.5–2 mM in syringe was injected in 25, 20, or 20 successive injections with a spacing of 180, 150, or 120 s for VP-ITC, iTC-200, or Nano-ITC, respectively, as previously described[30]–[32]. iTC-200 or Nano-ITC data were consistent with those from the VP-ITC instrument, based on ITC results of SMN-compound 1 detected by using all the instruments. Control experiments were performed under identical conditions to determine the heat signals that arise from injection of the compounds into the buffer. Data were fitted using the single-site binding model within the Origin software 7.0 package (MicroCal, Inc.) or the independent model within the Nano-Analyze software package (TA, Inc.).

The test system of another test is R-loops in HEK293 cells. In words: Global nuclear R-loop immunofluorescence (S9.6 antibody). The format is cell-based, human. The conditions noted are these: 20 μM, 72 h, S9.6 immunofluorescence. The procedure:
Global nuclear R-loop detection was ascertained via immunofluorescence using the S9.6 antibody (Kerafast, ENH001)[58]. At 24 h prior to immunofluorescence, 40,000 cells were seeded on to Poly-L-Lysine (PLL) coated coverslips. Cells were fixed using 1% formaldehyde for 15 min, washed three times with PBS, permeabilized with 0.3% Triton X-100 and washed again three times with PBS. Coverslips were blocked using 5% BSA for 1 h at room temperature and transferred to humidified chambers for antibody incubations. Coverslips were incubated with 60 μL of monoclonal S9.6 antibody (Kerafast, ENH001, 1:500) for 1 h at room temperature. After washing with PBS, cells were incubated with a secondary goat anti-mouse Alexa Fluor 488 antibody (Thermo Fisher, A11001, 1:1000) for 1 h in a dark chamber. Following further washing and DAPI staining, coverslips were mounted onto microscope slides using DAKO fluorescent mounting medium (Agilent, S302380-2) and then sealed with nail polish. […] The coverslips were processed for immunofluorescence 24 h later using the primary antibodies monoclonal S9.6 (Kerafast, ENH001, 1:500), or polyclonal anti-RNase H1 (Proteintech, 15606-1-AP, 1:500) and the secondary antibodies goat anti-mouse Alexa Fluor 488 (Thermo Fisher, A11001, 1:1000) or goat anti-rabbit Alexa Fluor 568 (Thermo Fisher, A11011, 1:1000) to quantify R-loop and confirm RNase H1 overexpression, respectively. […]

Where “and” joins values, the source holds several entries; their conditions need not be identical. Identical values can stand only once.

One may read the Kd as the concentration at which binding is half-saturated. A higher Kd goes with weaker binding. In the case of `Cn1c2c(c(=N)c3c1CCC3)CCC2` [Compound 1, 4-methyl-2,3,4,5,6,7-hexahydrodicyclopenta[b,e]pyridin-8(1H)-imine], the Kd in test [1] was ~16 µM and 16 µM. Further, the “global nuclear R-loop levels in comparison to the DMSO controls” value with R-loops in HEK293 cells is listed as “significantly increased”.
`CCCn1c2c(c(=N)c3c1CCC3)CCC2` [Compound 2, 4-propyl-2,3,4,5,6,7-hexahydrodicyclopenta[b,e]pyridin-8(1H)-imine]: the “Kd (UHRF1)” value in test [1] is on record as “No binding”. For the same molecule, the “global nuclear R-loop levels in comparison to the DMSO controls” value in the test with R-loops in HEK293 cells is listed as “significantly increased”.

For the origin of these results see article PMC9481570, “A small molecule antagonist of SMN disrupts the interaction between SMN and RNAP II” (Nature Communications, 2022).
